Tests used:
[1] = target: T1, GST-JAK1(866-1154) (Homo sapiens, UniProt P23458); experiment: EPK JAK-family kinases profiling assay (Caliper mobility shift), JAK1; type: biochemical; conditions: ATP 40 μM, 50 nM kinase
T1 construct: GST-JAK1(866-1154); made in house
Summary of the method: (§1)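 Turnover was read as substrate/product ratio after mobility-shift capillary-like separation of each reaction, run for 60 min at 30 °C with GST-tagged kinase domain, labelled peptide and ATP, and terminated with EDTA stop buffer.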

[2] = target: T2, GST-JAK2(808-1132) (Homo sapiens, UniProt O60674); experiment: EPK JAK-family kinases profiling assay (Caliper mobility shift), JAK2; type: biochemical; conditions: ATP 20 μM, 1.8 nM kinase
T2 construct: GST-JAK2(808-1132); purchased Invitrogen (Carlsbad, USA) #4288
T2 sequence (O60674 808-1132): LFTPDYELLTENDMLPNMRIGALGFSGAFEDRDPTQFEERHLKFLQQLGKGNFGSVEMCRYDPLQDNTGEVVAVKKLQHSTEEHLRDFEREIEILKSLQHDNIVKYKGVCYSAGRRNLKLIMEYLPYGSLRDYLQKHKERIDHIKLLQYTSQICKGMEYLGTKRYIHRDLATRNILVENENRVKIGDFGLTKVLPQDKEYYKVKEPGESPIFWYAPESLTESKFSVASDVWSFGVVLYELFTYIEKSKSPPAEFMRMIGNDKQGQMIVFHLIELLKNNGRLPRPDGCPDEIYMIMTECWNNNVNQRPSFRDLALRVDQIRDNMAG
Summary of the method: as §1

[3] = target: T3, GST-TYK2(888-1187) (Homo sapiens, UniProt P29597); experiment: EPK JAK-family kinases profiling assay (Caliper mobility shift), TYK2; type: biochemical; conditions: ATP 30 μM, 40 nM kinase
T3 construct: GST-TYK2(888-1187); made in house
T3 sequence (P29597 888-1187): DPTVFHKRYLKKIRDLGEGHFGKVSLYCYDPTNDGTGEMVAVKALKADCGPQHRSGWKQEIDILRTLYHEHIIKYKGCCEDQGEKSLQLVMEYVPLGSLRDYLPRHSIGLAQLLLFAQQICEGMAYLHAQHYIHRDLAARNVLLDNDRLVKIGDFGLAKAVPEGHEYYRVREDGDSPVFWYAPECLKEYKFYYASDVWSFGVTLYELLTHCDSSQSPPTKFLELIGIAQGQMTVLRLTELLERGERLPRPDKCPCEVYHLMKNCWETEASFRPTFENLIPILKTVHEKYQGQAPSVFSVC
Source text: All four kinases of the JAK-family kinases were used as purified recombinant GST-fusion proteins, containing the active kinase domains. GST-JAK1(866-1154), GST-JAK3(811-1124), and GST-TYK2(888-1187) were expressed and purified by affinity chromatography at the EPK biology unit. GST-JAK2(808-1132) was purchased from Invitrogen (Carlsbad, USA, #4288).
The kinase assays were based on the Caliper mobility shift assay using the LabChip 3000 systems. This technology is similar to capillary electrophoresis and uses charge driven separation of substrate and product in a microfluidic chip.
All kinase reactions were performed in 384 well microtiter plates in a total reaction volume of 18 μl. The assay plates were prepared with 0.1 μl per well of test compound in the appropriate test concentration, as described under the section “preparation of compound dilutions”. The reactions were started by combining 9 μl of substrate mix (consisting of peptide and ATP) with 9 μl of kinase dilution. The reactions were incubated for 60 minutes at 30° C. and stopped by adding 70 μl of stop buffer (100 mM Hepes, 5% DMSO, 0.1% Coating reagent, 10 mM EDTA, 0.015% Brij 35).
Fluorescently labeled synthetic peptides were used as substrates in all reactions. […] Specific assay conditions are described in Table 1:
The terminated reactions were transferred to the Caliper LabChip 3000 reader and the turnover of each reaction was measured by determining the substrate/product ratio.
Test compounds were dissolved in DMSO (10 mM) and transferred into 1.4 mL flat bottom or V-shaped Matrix tubes carrying a unique 2D matrix chip by individual compound hubs. The numbers of these chips were distinctively linked to the individual compound identification numbers. The stock solutions were stored at −20° C. if not used immediately. For the test procedure the vials were defrosted and identified by a scanner whereby a working sheet was generated that guided the subsequent working steps.
Compound dilutions were made in 96 well plates. This format enabled the assay of maximally 40 individual test compounds at 8 concentrations (single points) including 4 reference compounds. The dilution protocol included the production of pre-dilution plates, master plates and assay plates:
Pre-dilution plates: 96 polypropylene well plates were used as pre-dilution plates. A total of 4 pre-dilution plates were prepared including 10 test compounds each on the plate positions A1-A10, one standard compound at A11 and one DMSO control at A12. All dilution steps were done on a HamiltonSTAR robot.
Master plates: 100 μL of individual compound dilutions including standard compound and controls of the 4 “pre-dilution plates” were transferred into a 384 “master plate” including the following concentrations 1′820, 564, 182, 54.6, 18.2, 5.46, 1.82 and 0.546 μM, respectively in 90% of DMSO.
Assay plates: Identical assay plates were then prepared by pipetting 100 nL each of compound dilutions of the master plates into 384-well “assay plates”. […] The preparation of the master plates were handled by the Matrix PlateMate Plus robot and replication of assay plates by the HummingBird robot.

[4] = tested on: JAK/STAT pathway (JAK1/JAK2-dependent nuclear translocation of STAT1-GFP); experiment: Inhibition of the JAK/STAT pathway: IFN-γ stimulated nuclear translocation of STAT1-GFP in HT1080 fibrosarcoma cells; type: cell-based; conditions: Homo sapiens, HT-1080; HT1080 STAT1-GFP cells, 100 ng/ml IFN-γ 2 hours, compound added 30 min before; read-out: STAT1translo IC50
Summary of the method: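 HT1080 cells stably expressing STAT1-GFP, compounds added 30 min before IFN-γ stimulation at final 10 μM down to 0.003 μM (0.1% DMSO). Nuclear-cytoplasmic GFP intensity differential quantified by automated imaging with Hoechst nuclear mask, ≥1000 cells per well, averaged per well.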

T1 sequence (P23458 866-1154): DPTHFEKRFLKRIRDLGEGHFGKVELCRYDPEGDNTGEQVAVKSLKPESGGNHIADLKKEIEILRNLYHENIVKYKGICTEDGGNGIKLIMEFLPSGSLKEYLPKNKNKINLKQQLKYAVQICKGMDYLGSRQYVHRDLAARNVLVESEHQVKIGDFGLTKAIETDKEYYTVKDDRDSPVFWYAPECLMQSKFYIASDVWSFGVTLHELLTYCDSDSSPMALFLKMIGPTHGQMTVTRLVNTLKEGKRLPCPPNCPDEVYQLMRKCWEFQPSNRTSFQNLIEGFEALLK

Row | IC50 [1] [µM] | IC50 [2] [µM] | IC50 [3] [µM] | IC50 [4] [µM] | Compound
1 | 0.24 | 0.0061 | 0.51 | 1.35 | Fc1cc(-c2cccc3ncc(-c4cnn(CC5CCCNC5)c4)nc23)cc(F)c1CN1CCOCC1 (racemic) [Example 135, (rac)-8-(3,5-Difluoro-4-morpholin-4-ylmethyl-phenyl)-2-(1-piperidin-3-ylmethyl-1H-pyrazol-4-yl)-quinoxaline]
2 | 1.4 | 0.13 | 1.2 | 12.6 | Cc1cc(-c2cccc3ncc(-c4cnn(C5CCNCC5)c4)nc23)ccc1C(=O)N1CCOCC1 [Example 100, {2-Methyl-4-[3-(1-piperidin-4-yl-1H-pyrazol-4-yl)-quinoxalin-5-yl]-phenyl}-morpholin-4-yl-methanone]
3 | 0.15 | 0.024 | 0.36 | 3.06 | CN1CCN(c2ccc(-c3cnc4cccc(-c5ccc(CN6CCS(=O)(=O)CC6)cc5)c4n3)cn2)CC1 [Example 109, 8-[4-(1,1-Dioxido-thiomorpholin-4-ylmethyl)-phenyl]-2-[6-(4-methyl-piperazin-1-yl)-pyridin-3-yl]-quinoxaline]
4 | 0.13 | 0.013 | 0.35 | 1.73 | Cc1cc(-c2cnc3cccc(-c4cc(F)c(CN5CCOCC5)c(F)c4)c3n2)ccc1C(=O)NCCO [Example 120, 4-[8-(3,5-Difluoro-4-morpholin-4-ylmethyl-phenyl)-quinoxalin-2-yl]-N-(2-hydroxy-ethyl)-2-methyl-benzamide]
5 | 0.31 | < 0.003 | 0.21 | 0.369 | Cc1c(-c2cnc3cccc(-c4cc(F)c(CN5CCOCC5)c(F)c4)c3n2)cnn1C1CCNCC1 [Example 125, 8-(3,5-Difluoro-4-morpholin-4-ylmethyl-phenyl)-2-(5-methyl-1-piperidin-4-yl-1H-pyrazol-4-yl)-quinoxaline]
6 | 0.066 | < 0.003 | 0.038 | 0.086 | Cc1nn(C2CCNCC2)cc1-c1cnc2cccc(-c3cc(F)c(CN4CCOCC4)c(F)c3)c2n1 [Example 127, 8-(3,5-Difluoro-4-morpholin-4-ylmethyl-phenyl)-2-(3-methyl-1-piperidin-4-yl-1H-pyrazol-4-yl)-quinoxaline]
7 | 0.13 | < 0.003 | 0.16 | 0.196 | Fc1cc(-c2cccc3ncc(-c4cnn(C5CCN(C6CC6)CC5)c4)nc23)cc(F)c1CN1CCOCC1 [Example 128, 2-[1-(1-Cyclopropyl-piperidin-4-yl)-1H-pyrazol-4-yl]-8-(3,5-difluoro-4-morpholin-4-ylmethyl-phenyl)-quinoxaline]
8 | 0.078 | < 0.003 | 0.096 | 0.162 | O=C(C1CC1)N1CCC(n2cc(-c3cnc4cccc(-c5cc(F)c(CN6CCOCC6)c(F)c5)c4n3)cn2)CC1 [Example 129, Cyclopropyl-(4-{4-[8-(3,5-difluoro-4-morpholin-4-ylmethyl-phenyl)-quinoxalin-2-yl]-pyrazol-1-yl}-piperidin-1-yl)-methanone]
9 | 0.15 | 0.0034 | 0.2 | 0.163 | COC(=O)N1CCC(n2cc(-c3cnc4cccc(-c5cc(F)c(CN6CCOCC6)c(F)c5)c4n3)cn2)CC1 [Example 130, 4-{4-[8-(3,5-Difluoro-4-morpholin-4-ylmethyl-phenyl)-quinoxalin-2-yl]-pyrazol-1-yl}-piperidine-1-carboxylic acid methyl ester]
10 | 0.05 | < 0.003 | 0.033 | 0.09 | Cc1nn(C2CCN(C(=O)C(C)C)CC2)cc1-c1cnc2cccc(-c3cc(F)c(CN4CCOCC4)c(F)c3)c2n1 [Example 131, 1-(4-{4-[8-(3,5-Difluoro-4-morpholin-4-ylmethyl-phenyl)-quinoxalin-2-yl]-3-methyl-pyrazol-1-yl}-piperidin-1-yl)-2-methyl-propan-1-one]

Reference: patent publication US8193189B2, “Quinoxaline derivatives as tyrosine kinase activity inhibitors” (Novartis AG, priority 2007, dated 2012)
